Patent US7323469B2, “7H-pyrrolo[2,3-d]pyrimidine derivatives” (Novartis AG, priority 2001, dated 2008)

Tests used:
VEGF Receptor (KDR) = VEGF Receptor (KDR) (Homo sapiens, UniProt P35968); assay: Inhibition of KDR tyrosine kinase activity; format: biochemical
Protocol: The compounds of the present invention are therefore very effective dual inhibitors of EGF- and VEGF-receptor family members. For inhibition of KDR and Flt-1 and inhibition of growth factor-induced proliferation of HUVECS see J. Wood et al., Cancer Res. 60, 2178-2189 (2000). The compounds of formula I inhibit e.g. the KDR tyrosine kinase activity with an IC50 of from about 1 nM to about 1 μM, especially from about 5 nM to about 0.5 μM.
(§1) Inhibition of the Tyrosine Kinase Activity of EGF-R (HER-1), ErbB-2 (HER-2) and VEGF Receptor (KDR)
(§2) The inhibition tests are carried out as described above.

ErbB-2 (HER-2) = ErbB-2 (HER-2) (Homo sapiens, UniProt P04626); assay: Inhibition of ErbB-2 tyrosine kinase activity; format: biochemical
Chain of ErbB-2 (HER-2) (P04626 23-1255): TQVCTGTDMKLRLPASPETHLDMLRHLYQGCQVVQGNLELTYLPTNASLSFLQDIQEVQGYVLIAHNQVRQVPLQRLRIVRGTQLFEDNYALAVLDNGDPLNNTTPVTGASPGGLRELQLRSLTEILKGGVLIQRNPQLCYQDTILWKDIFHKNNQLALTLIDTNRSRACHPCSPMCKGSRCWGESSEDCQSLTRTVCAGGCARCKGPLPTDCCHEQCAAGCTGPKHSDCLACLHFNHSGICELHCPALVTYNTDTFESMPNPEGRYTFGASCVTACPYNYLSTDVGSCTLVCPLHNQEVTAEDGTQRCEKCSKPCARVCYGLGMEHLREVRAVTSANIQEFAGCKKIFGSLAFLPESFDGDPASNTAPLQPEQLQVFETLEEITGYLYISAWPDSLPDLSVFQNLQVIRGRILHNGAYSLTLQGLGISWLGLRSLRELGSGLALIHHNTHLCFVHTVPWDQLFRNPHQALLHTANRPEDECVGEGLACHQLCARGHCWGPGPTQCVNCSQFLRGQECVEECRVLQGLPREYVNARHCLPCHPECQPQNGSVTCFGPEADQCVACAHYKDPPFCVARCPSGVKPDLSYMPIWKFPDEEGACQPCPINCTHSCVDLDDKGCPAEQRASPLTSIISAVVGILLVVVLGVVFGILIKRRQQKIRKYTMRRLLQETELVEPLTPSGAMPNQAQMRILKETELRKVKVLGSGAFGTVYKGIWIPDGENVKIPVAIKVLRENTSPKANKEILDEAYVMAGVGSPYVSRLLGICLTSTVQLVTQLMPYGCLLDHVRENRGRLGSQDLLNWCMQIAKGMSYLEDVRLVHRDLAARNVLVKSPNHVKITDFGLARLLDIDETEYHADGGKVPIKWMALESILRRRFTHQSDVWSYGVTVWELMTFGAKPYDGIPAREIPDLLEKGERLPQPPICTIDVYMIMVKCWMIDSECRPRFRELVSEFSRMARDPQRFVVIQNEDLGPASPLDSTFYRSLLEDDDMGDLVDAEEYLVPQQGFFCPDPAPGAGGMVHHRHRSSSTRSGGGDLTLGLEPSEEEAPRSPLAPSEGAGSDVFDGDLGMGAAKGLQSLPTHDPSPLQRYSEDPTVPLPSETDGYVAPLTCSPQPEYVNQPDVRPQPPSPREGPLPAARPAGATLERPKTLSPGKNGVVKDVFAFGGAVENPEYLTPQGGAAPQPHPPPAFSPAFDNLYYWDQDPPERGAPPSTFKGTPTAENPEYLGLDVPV
Protocol: The inhibitory activity (IC50) is approximately in the range of 0.001 to 0.5 μM. The inhibition of ErbB-2 tyrosine kinase (HER-2) can be determined, for example, analogously to the method used for EGF-R protein tyrosine kinase [see C. House et al., Europ. J. Biochem. 140, 363-367 (1984)]. The ErbB-2 kinase can be isolated, and its activity determined, by means of protocols known per se, for example in accordance with T. Akiyama et al., Science 232, 1644 (1986).
as §1, §2

Chain of VEGF Receptor (KDR) (P35968 20-1356): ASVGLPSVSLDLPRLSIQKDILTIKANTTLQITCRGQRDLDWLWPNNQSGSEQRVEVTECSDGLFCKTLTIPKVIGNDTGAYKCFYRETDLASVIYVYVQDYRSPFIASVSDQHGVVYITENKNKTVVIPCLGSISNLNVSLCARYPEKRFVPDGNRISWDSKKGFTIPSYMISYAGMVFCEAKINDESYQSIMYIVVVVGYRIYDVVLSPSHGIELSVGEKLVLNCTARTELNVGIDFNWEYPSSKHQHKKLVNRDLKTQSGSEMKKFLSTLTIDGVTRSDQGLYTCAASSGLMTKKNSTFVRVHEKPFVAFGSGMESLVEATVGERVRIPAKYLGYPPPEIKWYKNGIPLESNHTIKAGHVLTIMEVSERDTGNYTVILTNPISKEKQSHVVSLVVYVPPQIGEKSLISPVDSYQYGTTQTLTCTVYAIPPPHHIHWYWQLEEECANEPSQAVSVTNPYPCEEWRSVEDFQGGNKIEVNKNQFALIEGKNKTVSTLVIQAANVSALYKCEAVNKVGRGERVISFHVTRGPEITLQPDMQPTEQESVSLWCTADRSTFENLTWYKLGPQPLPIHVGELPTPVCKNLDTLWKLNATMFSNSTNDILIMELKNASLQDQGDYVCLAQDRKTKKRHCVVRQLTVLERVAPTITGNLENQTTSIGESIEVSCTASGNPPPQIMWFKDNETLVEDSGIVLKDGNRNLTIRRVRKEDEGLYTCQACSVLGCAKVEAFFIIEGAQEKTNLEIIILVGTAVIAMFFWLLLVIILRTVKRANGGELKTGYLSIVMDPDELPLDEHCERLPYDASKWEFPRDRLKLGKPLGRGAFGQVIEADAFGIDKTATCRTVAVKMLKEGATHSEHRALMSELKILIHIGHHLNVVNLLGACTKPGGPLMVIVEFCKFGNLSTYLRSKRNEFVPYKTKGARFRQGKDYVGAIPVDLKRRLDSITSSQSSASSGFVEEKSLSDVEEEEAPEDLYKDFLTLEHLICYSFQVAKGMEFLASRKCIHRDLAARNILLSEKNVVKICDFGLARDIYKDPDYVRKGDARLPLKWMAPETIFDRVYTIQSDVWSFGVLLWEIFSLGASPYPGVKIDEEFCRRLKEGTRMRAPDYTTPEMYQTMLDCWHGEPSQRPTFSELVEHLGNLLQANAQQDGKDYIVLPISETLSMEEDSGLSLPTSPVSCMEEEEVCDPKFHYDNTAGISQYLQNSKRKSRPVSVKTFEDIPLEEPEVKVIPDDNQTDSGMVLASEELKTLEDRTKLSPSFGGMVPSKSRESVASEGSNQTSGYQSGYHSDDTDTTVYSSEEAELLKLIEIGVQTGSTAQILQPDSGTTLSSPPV

Compound `CCN(CC)Cc1ccc(-c2cc3c(N[C@H](C)c4ccccc4)ncnc3[nH]2)cc1` [Example 10, [6-(4-Diethylamino-methyl-phenyl)-7H-pyrrolo[2,3-d]pyrimidin-4-yl]-((R)-1-phenyl-ethyl)-amine] has a melting point of 246 to 248 °C, an IC50 (VEGF Receptor (KDR)) of 29.3 nM and an IC50 (ErbB-2 (HER-2)) of 9 nM.

For `CCN1CCN(Cc2ccc(-c3cc4c(N[C@H](C)c5ccccc5)ncnc4[nH]3)cc2)CC1` [Example 11, {6-[4-(4-Ethyl-piperazin-1-ylmethyl)-phenyl]-7H-pyrrolo[2,3-d]pyrimidin-4-yl}-((R)-1-phenyl-ethyl)-amine], the IC50 (VEGF Receptor (KDR)) was 49.7 nM and the IC50 (ErbB-2 (HER-2)) was 5 nM.

For `Clc1ccccc1CNc1ncnc2[nH]c(-c3ccc(CN4CCCCC4)cc3)cc12` [Example 92, (2-Chloro-benzyl)-[6-(4-piperidin-1-ylmethyl-phenyl)-7H-pyrrolo[2,3-d]pyrimidin-4-yl]-amine], the melting point was 262 to 264 °C.

With `Clc1ccccc1CNc1ncnc2[nH]c(-c3ccc(CN4CCOCC4)cc3)cc12` [Example 93, (2-Chloro-benzyl)-[6-(4-morpholin-4-ylmethyl-phenyl)-7H-pyrrolo[2,3-d]pyrimidin-4-yl]-amine] the melting point was 276 to 279 °C.

`Clc1ccccc1CNc1ncnc2[nH]c(-c3ccc(CN4CCCC4)cc3)cc12` [Example 95, (2-Chloro-benzyl)-[6-(4-pyrrolidin-1-ylmethyl-phenyl)-7H-pyrrolo[2,3-d]pyrimidin-4-yl]-amine] showed a melting point of 264 to 265 °C.

`CCN(CC)Cc1ccc(-c2cc3c(NCc4ccccc4Cl)ncnc3[nH]2)cc1` [Example 96, (2-Chloro-benzyl)-[6-(4-diethylaminomethyl-phenyl)-7H-pyrrolo[2,3-d]pyrimidin-4-yl]-amine] showed a melting point of 257 to 258 °C.

In the case of `CCN1CCN(Cc2ccc(-c3cc4c(NCc5cc(Cl)ccc5Cl)ncnc4[nH]3)cc2)CC1` [Example 97, (2,5-Dichloro-benzyl)-{6-[4-(4-ethyl-piperazin-1-ylmethyl)-phenyl]-7H-pyrrolo[2,3-d]pyrimidin-4-yl}-amine], the melting point is reported as 249 to 251 °C.

In the case of `CN(C)Cc1ccc(-c2cc3c(NCc4cc(Cl)ccc4Cl)ncnc3[nH]2)cc1` [Example 98, (2,5-Dichloro-benzyl)-[6-(4-dimethylaminomethyl-phenyl)-7H-pyrrolo[2,3-d]pyrimidin-4-yl]-amine], the melting point is reported as 254 to 257 °C.

In the case of `Clc1ccc(Cl)c(CNc2ncnc3[nH]c(-c4ccc(CN5CCOCC5)cc4)cc23)c1` [Example 99, (2,5-Dichloro-benzyl)-[6-(4-morpholin-4-ylmethyl-phenyl)-7H-pyrrolo[2,3-d]pyrimidin-4-yl]-amine], the melting point is reported as 272 to 274 °C.

`Clc1ccc(Cl)c(CNc2ncnc3[nH]c(-c4ccc(CN5CCCCC5)cc4)cc23)c1` [Example 100, (2,5-Dichloro-benzyl)-[6-(4-piperidin-1-ylmethyl-phenyl)-7H-pyrrolo[2,3-d]pyrimidin-4-yl]-amine] gave a melting point of 258 to 260 °C.

With `CCN(CC)Cc1ccc(-c2cc3c(NCc4cc(Cl)ccc4Cl)ncnc3[nH]2)cc1` [Example 101, (2,5-Dichloro-benzyl)-[6-(4-diethylaminomethyl-phenyl)-7H-pyrrolo[2,3-d]pyrimidin-4-yl]-amine] the melting point was 255 to 257 °C.

Compound `CN1CCN(Cc2ccc(-c3cc4c(NCc5cc(Cl)ccc5Cl)ncnc4[nH]3)cc2)CC1` [Example 102, (2,5-Dichloro-benzyl)-{6-[4-(4-methyl-piperazin-1-ylmethyl)-phenyl]-7H-pyrrolo[2,3-d]pyrimidin-4-yl)-amine] has a melting point of 244 to 246 °C.

With `Clc1ccc(Cl)c(CNc2ncnc3[nH]c(-c4ccc(CN5CCCC5)cc4)cc23)c1` [Example 103, (2,5-Dichloro-benzyl)-[6-(4-pyrrolidin-1-ylmethyl-phenyl)-7H-pyrrolo[2,3-d]pyrimidin-4-yl]-amine] the melting point was 266 to 268 °C.

`COc1cccc(CNc2ncnc3[nH]c(-c4ccc(CN5CCCC5)cc4)cc23)c1` [Example 106, (3-Methoxy-benzyl)-[6-(4-pyrrolidin-1-ylmethyl-phenyl)-7H-pyrrolo[2,3-d]pyrimidin-4-yl]-amine] showed a melting point of 220 to 222 °C.

In the case of `COc1cccc(CNc2ncnc3[nH]c(-c4ccc(CN5CCCCC5)cc4)cc23)c1` [Example 107, (3-Methoxy-benzyl)-[6-(4-piperidin-1-ylmethyl-phenyl)-7H-pyrrolo[2,3-d]pyrimidin-4-yl]-amine], the melting point is reported as 227 to 229 °C.

Compound `COc1cccc(CNc2ncnc3[nH]c(-c4ccc(CN5CCOCC5)cc4)cc23)c1` [Example 107a, (3-Methoxy-benzyl)-[6-(4-morpholin-4-ylmethyl-phenyl)-7H-pyrrolo[2,3-d]pyrimidin-4-yl]-amine] has a melting point of 263 to 265 °C.

`COc1cccc(CNc2ncnc3[nH]c(-c4ccc(CN5CCN(C)CC5)cc4)cc23)c1` [Example 107b, (3-Methoxy-benzyl)-{6-[4-(4-methyl-piperazin-1-ylmethyl)-phenyl]-7H-pyrrolo[2,3-d]pyrimidin-4-yl}-amine] gave a melting point of 225 to 227 °C.

`CCN1CCN(Cc2ccc(-c3cc4c(NCc5cccc(OC)c5)ncnc4[nH]3)cc2)CC1` [Example 107c, {6-[4-(4-Ethyl-piperazin-1-ylmethyl)-phenyl]-7H-pyrrolo[2,3-d]pyrimidin-4-yl}-(3-methoxy-benzyl)-amine] gave a melting point of 231 to 233 °C.

`Cc1cccc(CNc2ncnc3[nH]c(-c4ccc(CN5CCCCC5)cc4)cc23)c1` [Example 107d, (3-Methyl-benzyl)-[6-(4-piperidin-1-ylmethyl-phenyl)-7H-pyrrolo[2,3-d]pyrimidin-4-yl]-amine] gave a melting point of 246 to 248 °C.

Work on `Cc1cccc(CNc2ncnc3[nH]c(-c4ccc(CN5CCOCC5)cc4)cc23)c1` [Example 107e, (3-Methyl-benzyl)-[6-(4-morpholin-4-ylmethyl-phenyl)-7H-pyrrolo[2,3-d]pyrimidin-4-yl]-amine] yielded a melting point of 259 to 261 °C.

In the case of `Cc1cccc(CNc2ncnc3[nH]c(-c4ccc(CN5CCCC5)cc4)cc23)c1` [Example 107h, (3-Methyl-benzyl)-[6-(4-pyrrolidin-1-ylmethyl-phenyl)-7H-pyrrolo[2,3-d]pyrimidin-4-yl]-amine], the melting point is reported as 241 to 243 °C.

Work on `Cc1cccc(CNc2ncnc3[nH]c(-c4ccc(CN5CCN(C)CC5)cc4)cc23)c1` [Example 107i, (3-Methyl-benzyl)-{6-[4-(4-methyl-piperazin-1-ylmethyl)-phenyl]-7H-pyrrolo[2,3-d]pyrimidin-4-yl}-amine] yielded a melting point of 244 to 246 °C.

With `CCN1CCN(Cc2ccc(-c3cc4c(NCc5cccc(C)c5)ncnc4[nH]3)cc2)CC1` [Example 107j, {6-[4-(4-Ethyl-piperazin-1-ylmethyl)-phenyl]-7H-pyrrolo[2,3-d]pyrimidin-4-yl}-(3-methyl-benzyl)-amine] the melting point was 250 to 252 °C.

In the case of `COc1ccc(Nc2ncnc3[nH]c(-c4ccc(CN5CCOCC5)cc4)cc23)cn1` [Example 111, (6-Methoxy-pyridin-3-yl)-[6-(4-morpholin-4-ylmethyl-phenyl)-7H-pyrrolo[2,3-d]pyrimidin-4-yl]-amine], the melting point is reported as 263 to 264 °C.

For `COc1ccc(Nc2ncnc3[nH]c(-c4ccc(CN5CCN(C)CC5)cc4)cc23)cn1` [Example 112, (6-Methoxy-pyridin-3-yl)-{6-[4-(4-methyl-piperazin-1-ylmethyl)-phenyl]-7H-pyrrolo[2,3-d]pyrimidin-4-yl}-amine], the melting point was 241 to 242 °C.

Compound `CCN1CCN(Cc2ccc(-c3cc4c(NCc5ccnc(OC)c5)ncnc4[nH]3)cc2)CC1` [Example 122, (2-Methoxy-pyridin-4-ylmethyl)-{6-[4-(4-ethyl-piperazin-1-ylmethyl)-phenyl]-7H-pyrrolo[2,3-d]pyrimidin-4-yl}-amine] has a melting point of 210 to 212 °C.

For `COc1cc(CNc2ncnc3[nH]c(-c4ccc(CN(C)C)cc4)cc23)ccn1` [Example 124, (2-Methoxy-pyridin-4-ylmethyl)-{6-[4-(dimethylamino-methyl)-phenyl]-7H-pyrrolo[2,3-d]pyrimidin-4-yl}-amine], the melting point was 210 to 211 °C.

In the case of `COc1cc(CNc2ncnc3[nH]c(-c4ccc(CN5CCN(C)CC5)cc4)cc23)ccn1` [Example 125, (2-Methoxy-pyridin-4-ylmethyl)-{6-[4-(4-methyl-piperazin-1-ylmethyl)-phenyl]-7H-pyrrolo[2,3-d]pyrimidin-4-yl}-amine], the melting point is reported as 211 to 212 °C.

`CCN1CCN(Cc2ccc(-c3cc4c(NCc5cc[nH]c(=O)c5)ncnc4[nH]3)cc2)CC1` [Example 129, 4-({6-[4-(4-Ethyl-piperazin-1-ylmethyl)-phenyl]-7H-pyrrolo[2,3-d]pyrimidin-4-ylamino}-methyl)-1H-pyridin-2-one] showed a melting point of 291 to 292 °C.

Compound `Cc1cc2c(F)c(Oc3ncnc4[nH]c(-c5ccc(CN6CCOCC6)cc5)cc34)ccc2[nH]1` [Example 143, 4-(4-Fluoro-2-methyl-1H-indol-5-yloxy)-6-(4-morpholin-4-ylmethyl-phenyl)-7H-pyrrolo[2,3-d]pyrimidine] has a melting point of 280 to 282 °C.

For `C[C@@H](Nc1ncnc2[nH]c(-c3ccc(CN4CCNCC4)cc3)cc12)c1ccccc1` [Example 145, ((R)-1-Phenyl-ethyl)-[6-(4-piperazin-1-ylmethyl-phenyl)-7H-pyrrolo[2,3-d]pyrimidin-4-yl]-amine], the melting point was 240 to 242 °C.
